Test results reported in ChEMBL document CHEMBL1201862, “PubChem BioAssay data set” (2004).
Activity calls are given as the source filed them.

Key:
NADPH oxidase 1 = target: T1, NADPH oxidase 1 (Homo sapiens, UniProt Q9Y5S8); assay: Late-stage luminescence-based cell-based dose response assay to identify inhibitors of NADPH oxidase 1 (NOX1): Purchased analogs 2.; assay type: functional
T1 sequence (Q9Y5S8 whole entry): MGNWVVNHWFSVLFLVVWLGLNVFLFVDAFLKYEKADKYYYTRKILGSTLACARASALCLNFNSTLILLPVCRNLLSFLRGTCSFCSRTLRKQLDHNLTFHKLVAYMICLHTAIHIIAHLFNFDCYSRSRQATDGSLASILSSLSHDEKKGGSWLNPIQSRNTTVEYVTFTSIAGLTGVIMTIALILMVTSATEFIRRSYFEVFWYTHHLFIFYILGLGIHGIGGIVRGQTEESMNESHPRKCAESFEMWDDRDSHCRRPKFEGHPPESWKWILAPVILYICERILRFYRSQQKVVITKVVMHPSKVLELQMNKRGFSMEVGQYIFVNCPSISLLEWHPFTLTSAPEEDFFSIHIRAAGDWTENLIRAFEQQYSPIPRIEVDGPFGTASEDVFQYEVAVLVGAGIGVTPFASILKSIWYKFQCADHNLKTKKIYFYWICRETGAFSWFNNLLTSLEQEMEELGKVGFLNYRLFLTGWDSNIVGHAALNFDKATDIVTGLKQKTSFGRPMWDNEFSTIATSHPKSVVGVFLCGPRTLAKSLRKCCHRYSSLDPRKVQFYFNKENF

[1] = target: Photoreceptor-specific nuclear receptor (Homo sapiens, UniProt Q9Y5X4); assay: NR2E3 inverse agonists, dose response, biochemical, TR-FRET (AID 463256); assay type: functional
Chain of Photoreceptor-specific nuclear receptor (Q9Y5X4 whole entry): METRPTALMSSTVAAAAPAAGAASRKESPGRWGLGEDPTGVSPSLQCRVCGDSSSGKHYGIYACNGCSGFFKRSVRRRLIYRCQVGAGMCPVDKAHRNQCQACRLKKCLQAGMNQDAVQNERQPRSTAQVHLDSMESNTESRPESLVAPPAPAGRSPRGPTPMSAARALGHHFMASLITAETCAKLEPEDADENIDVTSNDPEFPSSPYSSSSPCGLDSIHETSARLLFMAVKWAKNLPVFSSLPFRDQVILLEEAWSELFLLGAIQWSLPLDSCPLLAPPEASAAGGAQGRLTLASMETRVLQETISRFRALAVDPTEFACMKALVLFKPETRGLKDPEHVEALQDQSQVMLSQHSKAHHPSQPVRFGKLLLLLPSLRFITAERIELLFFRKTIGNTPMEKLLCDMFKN

[2] = target: Peroxisome proliferator-activated receptor gamma/Nuclear receptor corepressor 2 (Homo sapiens, UniProt P37231+Q9Y618); assay: Counterscreen for NR2E3 inverse agonists: TR-FRET-based biochemical high throughput dose response assay to identify inverse agonists of the interaction between peroxisome proliferator-activated receptor gamma (PPARg) and nuclear receptor co-repressor 2 (NCOR2).; assay type: functional
Chain of Peroxisome proliferator-activated receptor gamma/Nuclear receptor corepressor 2 (P37231 whole entry): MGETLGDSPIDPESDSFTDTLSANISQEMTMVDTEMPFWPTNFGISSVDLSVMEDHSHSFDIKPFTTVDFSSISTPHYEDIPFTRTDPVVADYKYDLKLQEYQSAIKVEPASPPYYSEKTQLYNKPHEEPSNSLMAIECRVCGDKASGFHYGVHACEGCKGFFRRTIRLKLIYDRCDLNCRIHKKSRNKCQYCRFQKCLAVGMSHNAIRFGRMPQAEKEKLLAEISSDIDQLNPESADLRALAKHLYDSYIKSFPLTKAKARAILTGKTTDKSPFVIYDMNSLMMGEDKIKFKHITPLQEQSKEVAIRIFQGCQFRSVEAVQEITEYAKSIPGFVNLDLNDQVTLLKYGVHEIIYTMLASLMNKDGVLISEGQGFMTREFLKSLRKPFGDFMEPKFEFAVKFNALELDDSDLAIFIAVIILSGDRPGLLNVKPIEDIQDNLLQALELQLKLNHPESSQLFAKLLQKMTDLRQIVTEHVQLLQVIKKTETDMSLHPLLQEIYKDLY
Chain of Peroxisome proliferator-activated receptor gamma/Nuclear receptor corepressor 2 (Q9Y618 whole entry): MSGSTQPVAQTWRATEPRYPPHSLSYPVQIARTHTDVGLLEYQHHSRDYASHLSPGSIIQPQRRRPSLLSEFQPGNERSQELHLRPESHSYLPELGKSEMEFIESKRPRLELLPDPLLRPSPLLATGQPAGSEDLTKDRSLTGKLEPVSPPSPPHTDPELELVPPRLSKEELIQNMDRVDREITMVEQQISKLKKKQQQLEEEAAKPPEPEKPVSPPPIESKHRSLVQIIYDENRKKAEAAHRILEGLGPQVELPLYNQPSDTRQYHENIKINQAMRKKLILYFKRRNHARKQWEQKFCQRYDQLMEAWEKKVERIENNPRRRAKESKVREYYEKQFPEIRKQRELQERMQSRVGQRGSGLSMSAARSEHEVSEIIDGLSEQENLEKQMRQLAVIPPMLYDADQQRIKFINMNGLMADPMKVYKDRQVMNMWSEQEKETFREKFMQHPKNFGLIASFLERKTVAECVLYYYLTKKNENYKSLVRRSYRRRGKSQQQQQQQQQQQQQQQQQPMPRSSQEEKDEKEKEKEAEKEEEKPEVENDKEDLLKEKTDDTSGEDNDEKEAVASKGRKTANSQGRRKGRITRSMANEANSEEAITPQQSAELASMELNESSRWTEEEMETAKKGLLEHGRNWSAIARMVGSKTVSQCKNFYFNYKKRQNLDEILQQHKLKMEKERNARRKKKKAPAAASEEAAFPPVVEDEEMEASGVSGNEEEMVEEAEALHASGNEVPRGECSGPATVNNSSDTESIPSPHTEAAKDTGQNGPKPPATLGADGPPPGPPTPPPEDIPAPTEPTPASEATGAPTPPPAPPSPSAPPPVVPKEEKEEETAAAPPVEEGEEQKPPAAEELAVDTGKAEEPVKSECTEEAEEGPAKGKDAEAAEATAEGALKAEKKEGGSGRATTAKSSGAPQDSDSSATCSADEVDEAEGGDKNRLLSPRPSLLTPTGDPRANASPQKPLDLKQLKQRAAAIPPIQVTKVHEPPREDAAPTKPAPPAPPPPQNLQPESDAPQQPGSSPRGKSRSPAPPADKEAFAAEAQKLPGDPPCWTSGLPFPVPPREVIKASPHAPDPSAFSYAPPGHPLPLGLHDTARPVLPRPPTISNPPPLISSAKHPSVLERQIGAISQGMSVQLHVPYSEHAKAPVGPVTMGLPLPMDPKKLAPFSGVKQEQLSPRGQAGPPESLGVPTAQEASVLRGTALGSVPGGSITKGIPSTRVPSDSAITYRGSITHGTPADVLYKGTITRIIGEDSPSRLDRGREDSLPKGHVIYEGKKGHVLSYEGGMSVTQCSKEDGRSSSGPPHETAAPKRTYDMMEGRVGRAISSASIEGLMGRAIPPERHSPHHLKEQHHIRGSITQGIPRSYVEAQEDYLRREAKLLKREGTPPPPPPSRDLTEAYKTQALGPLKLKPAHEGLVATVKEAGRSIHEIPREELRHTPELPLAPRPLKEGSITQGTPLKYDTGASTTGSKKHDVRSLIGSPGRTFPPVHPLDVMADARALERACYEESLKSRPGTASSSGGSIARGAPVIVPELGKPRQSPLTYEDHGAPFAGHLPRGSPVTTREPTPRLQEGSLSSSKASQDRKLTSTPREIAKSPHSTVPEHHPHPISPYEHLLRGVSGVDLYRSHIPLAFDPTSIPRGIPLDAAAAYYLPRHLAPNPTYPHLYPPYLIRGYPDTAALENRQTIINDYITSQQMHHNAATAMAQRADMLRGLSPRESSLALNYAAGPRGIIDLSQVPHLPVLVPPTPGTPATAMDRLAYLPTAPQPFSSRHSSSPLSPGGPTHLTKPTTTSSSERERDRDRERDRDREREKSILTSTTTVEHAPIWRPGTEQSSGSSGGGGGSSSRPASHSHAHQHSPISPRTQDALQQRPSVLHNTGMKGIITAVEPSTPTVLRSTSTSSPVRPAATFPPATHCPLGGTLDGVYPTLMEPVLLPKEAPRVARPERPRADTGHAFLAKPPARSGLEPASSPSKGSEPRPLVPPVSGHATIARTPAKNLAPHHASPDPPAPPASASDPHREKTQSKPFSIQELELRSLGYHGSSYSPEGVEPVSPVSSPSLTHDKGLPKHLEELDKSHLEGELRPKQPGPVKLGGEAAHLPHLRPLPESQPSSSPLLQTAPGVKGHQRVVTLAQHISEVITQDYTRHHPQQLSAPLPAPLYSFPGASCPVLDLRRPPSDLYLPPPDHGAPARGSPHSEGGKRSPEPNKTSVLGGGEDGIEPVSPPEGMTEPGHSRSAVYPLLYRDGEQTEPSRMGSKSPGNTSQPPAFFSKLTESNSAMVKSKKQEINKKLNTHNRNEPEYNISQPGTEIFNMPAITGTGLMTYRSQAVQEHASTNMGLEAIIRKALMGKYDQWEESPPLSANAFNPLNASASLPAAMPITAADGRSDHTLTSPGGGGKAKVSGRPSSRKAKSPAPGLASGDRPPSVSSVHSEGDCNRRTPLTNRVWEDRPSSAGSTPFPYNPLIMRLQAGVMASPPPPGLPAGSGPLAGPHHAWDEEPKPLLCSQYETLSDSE

[3] = target: T2, Short transient receptor potential channel 4 (Mus musculus, UniProt Q9QUQ5); assay: mouse TRPC4 channel inhibitors, dose response, cell-based, HEK293 TRPC4/mu-opioid, Fluo-4 calcium (AID 434942); assay type: functional;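 also: potency of inhibitors blocking the TRPC4 calcium response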
T2 sequence (Q9QUQ5 whole entry): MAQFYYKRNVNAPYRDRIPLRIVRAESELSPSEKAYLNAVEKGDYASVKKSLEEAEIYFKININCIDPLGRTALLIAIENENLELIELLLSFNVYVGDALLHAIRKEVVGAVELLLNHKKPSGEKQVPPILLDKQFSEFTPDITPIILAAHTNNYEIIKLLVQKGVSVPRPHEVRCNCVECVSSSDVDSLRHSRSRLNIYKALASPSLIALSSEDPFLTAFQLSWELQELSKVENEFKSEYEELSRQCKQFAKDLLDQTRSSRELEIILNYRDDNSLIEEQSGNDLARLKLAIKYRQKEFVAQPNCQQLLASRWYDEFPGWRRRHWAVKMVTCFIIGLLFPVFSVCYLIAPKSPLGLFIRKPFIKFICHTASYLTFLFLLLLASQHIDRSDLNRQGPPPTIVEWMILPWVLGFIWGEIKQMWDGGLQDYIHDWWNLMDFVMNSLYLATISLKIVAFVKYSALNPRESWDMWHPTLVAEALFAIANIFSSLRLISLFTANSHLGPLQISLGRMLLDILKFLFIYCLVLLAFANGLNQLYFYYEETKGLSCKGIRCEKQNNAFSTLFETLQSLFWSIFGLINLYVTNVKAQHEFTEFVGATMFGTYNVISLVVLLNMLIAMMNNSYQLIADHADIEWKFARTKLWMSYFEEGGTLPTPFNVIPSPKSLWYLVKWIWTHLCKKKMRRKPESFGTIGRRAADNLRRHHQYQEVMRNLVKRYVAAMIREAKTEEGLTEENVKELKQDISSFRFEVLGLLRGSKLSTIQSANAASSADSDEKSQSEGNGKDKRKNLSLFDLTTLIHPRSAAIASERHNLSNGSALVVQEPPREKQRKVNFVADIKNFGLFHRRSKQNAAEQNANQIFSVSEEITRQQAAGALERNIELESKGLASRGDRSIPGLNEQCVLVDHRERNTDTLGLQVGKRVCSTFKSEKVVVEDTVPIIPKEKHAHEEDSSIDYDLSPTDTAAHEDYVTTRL

[4] = HEK293T cell cytotoxicity, dose response, cytotoxicity control, plate reader, dry powder, set 10 (AID 743315); assay type: functional, cell-based; conditions: HEK293
[5] = antifungal activity, alamar blue, dry powder, counter-screen for C. neoformans cell wall antifungals, dose response (AID 743128); assay type: functional, organism-based
[6] = target: T3, Calpain-2 catalytic subunit (Sus scrofa, UniProt P43367); assay: pig calpain II inhibitor potency, dose response, biochemical, fluorogenic peptide substrate (AID 1420); assay type: functional
T3 sequence (P43367 whole entry): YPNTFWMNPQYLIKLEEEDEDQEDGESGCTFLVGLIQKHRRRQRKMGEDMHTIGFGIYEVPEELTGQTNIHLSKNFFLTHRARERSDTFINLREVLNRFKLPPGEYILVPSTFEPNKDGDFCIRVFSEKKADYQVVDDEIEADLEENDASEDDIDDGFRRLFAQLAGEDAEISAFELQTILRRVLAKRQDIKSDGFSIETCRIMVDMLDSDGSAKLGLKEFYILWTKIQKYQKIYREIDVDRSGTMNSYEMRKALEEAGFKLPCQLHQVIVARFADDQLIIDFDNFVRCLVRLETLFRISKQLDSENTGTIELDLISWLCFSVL

[7] = Vero cell cytotoxicity, dose response, cytotoxicity control for Vif-APOBEC3G degradation inhibitor project, Vero cells (AID 1117358); assay type: functional; conditions: Human immunodeficiency virus 1, Vero
Bcl-2-related protein A1 = target: T4, Bcl-2-related protein A1 (Mus musculus, UniProt Q07440); assay type: functional;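 also: confirmatory dose–response counterscreen on Bfl-1, used to check hits from a UBC13 polyubiquitin inhibitor campaign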
T4 sequence (Q07440 whole entry): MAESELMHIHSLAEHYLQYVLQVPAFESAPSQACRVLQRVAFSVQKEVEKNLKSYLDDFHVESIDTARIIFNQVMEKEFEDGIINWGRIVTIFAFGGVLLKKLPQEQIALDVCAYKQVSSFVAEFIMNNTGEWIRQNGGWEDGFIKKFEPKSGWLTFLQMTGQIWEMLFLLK

[8] = target: T5, Ubiquitin-conjugating enzyme E2 N (Homo sapiens, UniProt P61088); assay type: functional
T5 sequence (P61088 whole entry): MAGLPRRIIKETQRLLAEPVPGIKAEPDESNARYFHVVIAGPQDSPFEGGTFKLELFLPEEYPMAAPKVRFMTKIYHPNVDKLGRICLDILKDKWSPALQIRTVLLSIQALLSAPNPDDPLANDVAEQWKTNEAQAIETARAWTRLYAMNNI

Genome polyprotein [9] = target: T6, Genome polyprotein (Hepatitis C virus, UniProt Q2Q167); assay: HCV core protein dimerization inhibitors, dose response, biochemical, TR-FRET (AID 2159); design: species or system Hepacivirus hominis;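 also: blocks dimerization of HCV core protein measured by TR-FRET between tagged core106 pairs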
T6 sequence (Q2Q167 whole entry): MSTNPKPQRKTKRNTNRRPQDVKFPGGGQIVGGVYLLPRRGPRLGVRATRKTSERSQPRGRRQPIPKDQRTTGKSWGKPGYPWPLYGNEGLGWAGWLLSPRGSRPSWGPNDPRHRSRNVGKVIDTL

[10] = target: T5, Ubiquitin-conjugating enzyme E2 N; assay type: functional; remark: listed apart in the source
Genome polyprotein [11] = target: T6, Genome polyprotein; assay: Late stage assay provider counterscreen results for the probe development effort to identify inhibitors of Hepatitis C Virus (HCV) core protein dimerization: Luminescence-based biochemical AlphaScreen assay to identify inhibitors of HCV core dimerization.; assay type: functional, Hepacivirus hominis
Transthyretin = Transthyretin (Homo sapiens, UniProt P02766); assay: Luminescence-based cell-based high throughput dose response assay to identify activators of Transthyretin (TTR) transcription.; assay type: functional
[12] = HEp-2 cell cytotoxicity, dose response, cytotoxicity control for RSV inhibitor project, HTS (AID 2410); assay type: functional; conditions: human respiratory syncytial virus
[13] = tested on: Streptococcus sp. 'group A'; assay: growth inhibition of control SK(-) GAS strain, dose response, counter-screen for streptokinase expression inhibitor project, luminescence, kanamycin, BacTiterGlo, confirmation (AID 1900); assay type: functional, organism-based
Streptococcus = assay: Group A Streptococcus viability loss, dose response, counter-screen for streptokinase expression inhibitor project, luminescence, BacTiterGlo (AID 1915); assay type: functional, organism-based;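 also: potency for reduction of bacterial viability or growth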
[14] = M. tuberculosis growth inhibition, HTS (AID 449762); assay type: functional
Streptokinase A = target: T7, Streptokinase A (Streptococcus pyogenes serotype M1, UniProt P10520); assay: S. pyogenes streptokinase expression inhibitors, potency, dose response, plasminogen activation absorbance, OD405 (AID 1914); assay type: functional, Streptococcus pyogenes M1 GAS;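 also: secreted streptokinase activity via plasminogen activation per viability signal from cell pellet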
T7 sequence (P10520 whole entry): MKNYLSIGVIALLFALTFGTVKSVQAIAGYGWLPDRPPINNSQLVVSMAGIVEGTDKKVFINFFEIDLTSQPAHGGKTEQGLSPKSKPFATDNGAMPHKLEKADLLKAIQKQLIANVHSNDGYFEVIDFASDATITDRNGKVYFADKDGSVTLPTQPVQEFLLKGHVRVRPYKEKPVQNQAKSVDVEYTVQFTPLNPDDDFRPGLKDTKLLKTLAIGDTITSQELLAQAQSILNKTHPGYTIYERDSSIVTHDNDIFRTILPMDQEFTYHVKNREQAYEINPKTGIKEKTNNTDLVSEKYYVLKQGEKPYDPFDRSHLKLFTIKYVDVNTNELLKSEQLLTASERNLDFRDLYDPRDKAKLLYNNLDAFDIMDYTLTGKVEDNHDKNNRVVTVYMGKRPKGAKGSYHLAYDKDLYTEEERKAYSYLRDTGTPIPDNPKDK

Which IC50 (NADPH oxidase 1) does the source give for `S=C(NNC(=S)Nc1ccccc1)Nc1ccccc1` here?
The IC50 was 0.321 µM (active).

For `CCOCCCNC(=O)c1cc(-c2ccc(Br)s2)nc2ccccc12`, which IC50 [1] is on record?
The IC50 was 6.67 µM (active).

What about the IC50 [2] of the same compound?
The IC50 was 4.18 µM (active).

For `Cc1ccc(OCCn2c(C)nc3ccccc32)cc1`, which EC50 [3] is on record?
The EC50 was 0.944 µM (active).

And the AC50 [4]?
Its AC50 is 40.5 µM (active).

What about the AC50 [5] of the same compound?
The AC50 was 41.6 µM (active).

Which IC50 [6] does the source give for `O=[N+]([O-])c1ccc(NCCCNS(=O)(=O)c2ccc(Cl)cc2)c(Cl)c1` here?
Its IC50 is 3.17 µM (not active).

And the CC50 [7]?
The CC50 was > 40 µM (active).

For `Cc1ccc(Cc2c(C)nc3nc(SCC(=O)NCCCN4CCCCCC4)nn3c2C)cc1`, which IC50 (Bcl-2-related protein A1) is on record?
The IC50 was > 20 µM (inactive).

What about the IC50 [8] of the same compound?
The IC50 was 13.2 µM (active).

And the IC50 (Genome polyprotein [9])?
Its IC50 is 9.87 µM (active).

What about the IC50 [10] of the same compound?
The IC50 was > 20 µM (inactive).

What about the IC50 (Genome polyprotein [11]) of the same compound?
Its IC50 is 5 µM (active).

For `COc1ccc(-c2cc(C)no2)cc1S(=O)(=O)NCc1cccc(C)c1`, which EC50 (Transthyretin) is on record?
The EC50 was > 167 µM (inactive).

With `Oc1ccc(/C=N/n2c3ccccc3c3ccccc32)cc1` as the compound, how does the CC50 [12] read?
The CC50 was 17.2 µM (active).

What about the EC50 [13] of the same compound?
The EC50 was 6.24 µM (active).

What about the EC50 (Streptococcus) of the same compound?
Its EC50 is 10.8 µM (active).

What about the IC50 [14] of the same compound?
The IC50 was > 100 µM (active).

And the EC50 (Streptokinase A)?
The EC50 was > 150 µM (not active).
